From patent publication US20260263495A1, “METHODS AND BIOAVAILABLE HIGHLY PERMEABLE COMPOUNDS FOR DISEASES TREATMENT” (priority 2024, published 2026)

How the values were obtained:
SARS-CoV-2 = conditions: reference level compared with the lung Cmax; read-out: EC 50 for SARS-CoV-2; cited from earlier work
[1] = test system: monolayer of Caco-2 cells; experiment: Permeability of solid dispersion aqueous solution on the Caco-2 cell line; conditions: Caco-2 monolayer, 3 μM (per pure IVM) in HBSS on top, compound of Formula I = Example 1 No 2
[2] = API concentration in the blood plasma of cattle after oral administration; type: in vivo; conditions: 600 μg/kg (per pure IVM)
Protocol: Free ivermectin substance was processed in planetary mill, the parameters were as follows: weight of the material—5 g, grinding jar volume—200 mL, grinding media—steel balls (diameter 8 mm, 90.0 g load), processing time—20 minutes. Compound of Formula I was treated according to Example 1 No21.
Cattle were divided into 2 groups of 1 animals each. Free Ivermectin (IVM) and compound of Formula I were orally administered to starving cattle. Blood samples were withdrawn from the jugular vein at appropriate time intervals after administration (0, 4, 20 h).
Ivermectin concentrations in blood plasma were analyzed according to the method Na-Bangchang, K., High-performance liquid chromatographic method for the determination of ivermectin in plasma, Southeast Asian J Trop Med Public Health, 2006 September, 37(5):848-58, PMID: 17333725.
The internal standard (moxidectin) was separated from ivermectin on a Hypersil Gold C18 column(150×4.6 mm, […]), with retention time of 3.7 and 7.0 minutes, respectively. Fluorescence detection was set at an excitation and emission wavelength of 365 and 475 nm, respectively. The mobile phase consisted of acetonitrile, methanol and distilled water (50:45:5,v/v/v), running through the column at a flow rate of 1.5 ml/minute. The chromatographic analysis was operated at 25° C. Sample preparation (100 μl plasma) was done by a single step protein precipitation with acetonitrile, followed by derivatization with 100 μl of N-methylimidazolesolution in acetonitrile (1:1, v/v) and 150 μl of trifluoroacetic anhydrous solution in acetonitrile(1:2, v/v). Calibration curve over the concentration range of 20-8,000 ng/ml plasma was linear with correlation coefficient better than 0.995.
All the blood samples were centrifuged at 3000 rpm for 15 min to obtain […]. Cattle plasma samples (100 μL each) were placed in 1.5 mL Eppendorf tubes, and then the samples underwent protein precipitation. The samples were vortexed for 1 min and centrifuged at 13,400 rpm for 10 min 20 μL of the supernatant was injected into the HPLC.

## CC[C@H](C)[C@H]1O[C@]2(CC[C@@H]1C)C[C@@H]1C[C@@H](C/C=C(\C)[C@@H](O[C@H]3C[C@H](OC)[C@@H](O[C@H]4C[C@H](OC)[C@@H](O)[C@H](C)O4)[C@H](C)O3)[C@@H](C)/C=C/C=C3\CO[C@@H]4[C@H](O)C(C)=C[C@@H](C(=O)O1)[C@]34O)O2 [IVM, Ivermectin]
SARS-CoV-2
  EC50: 2400 nM
[1]; 20 min
  Concentrartion of IVM at the bottom of the well: 50 ng/mL
[1]; 40 min
  Concentrartion of IVM at the bottom of the well: 90 ng/mL
[1]; 60 min
  Concentrartion of IVM at the bottom of the well: 150 ng/mL
[1]; 80 min
  Concentrartion of IVM at the bottom of the well: 190 ng/mL
[1]; 100 min
  Concentrartion of IVM at the bottom of the well: 210 ng/mL
[1]; 120 min
  Concentrartion of IVM at the bottom of the well: 250 ng/mL
[2]
  Cmax: 350 ± 50 nM
[2]; 0 h, compound of Formula I treated according to Example 1 No21
  C1, 0 h, ivermectin concentration in plasma: 0 ± 0.15 ng/mL
[2]; 4 h, compound of Formula I treated according to Example 1 No21
  C2, 4 h, ivermectin concentration in plasma: 307.3 ± 46.1 ng/mL
[2]; 20 h, compound of Formula I treated according to Example 1 No21
  C3, 20 h, ivermectin concentration in plasma: 104.4 ± 15.6 ng/mL
[2]; calculated from plasma Cmax
  Cmax in lung calculated by plasma-lung ratio 2.67: 930 ± 140 nM
